For 10 molecules, T/C results are on record in PubChem BioAssay AID328 (DTP/NCI, 2004).

“And” between values parts separate entries of the source, which are not always exact repeats. Identical values can stand only once. Toxic doses and inconclusive results are not listed.

The subject of this test is BDF1 mice, P388 leukemia ip, median survival T/C. Kind of test: NCI In Vivo Anticancer Drug Screen. Data for tumor model P388 Leukemia (intraperitoneal) in B6D2F1 (BDF1) mice. The note with it: endpoint: median survival time, higher = longer survival. Put shortly: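 In tumour-bearing mice, survival after compound treatment is set against the vehicle group and given as a quotient.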

The mark [1] stands for this setting: dose: 100.0 mg/kg/injection, schedule: Q04DX003 (ip), vehicle: Klucel (hydroxypropylcellulose) (HPC).
[2] abbreviates: dose: 200.0 mg/kg/injection, schedule: Q04DX003 (ip), vehicle: Klucel (hydroxypropylcellulose) (HPC).
[3] abbreviates: dose: 100.0 mg/kg/injection, schedule: Q01DX009 (ip), vehicle: saline with Tween-80.
[4] abbreviates: dose: 200.0 mg/kg/injection, schedule: Q01DX009 (ip), vehicle: saline with Tween-80.
[5] abbreviates: dose: 50.0 mg/kg/injection, schedule: Q01DX009 (ip), vehicle: saline with Tween-80.

With `CO[C@H](C(=O)[C@@H](O)[C@@H](C)O)[C@@H]1Cc2cc3cc(OC4CC(OC5CC(O)C(O)C(C)O5)C(O)C(C)O4)c(C)c(O)c3c(O)c2C(=O)[C@H]1OC1CC(OC2CC(OC3CC(C)(O)C(O)C(C)O3)C(O)C(C)O2)C(O)C(C)O1` (some centres undefined), the T/C was 120 % of control and 110 % of control (dose: 0.05 mg/kg/injection, schedule: Q01DX009 (ip), vehicle: water); 100 % of control (dose: 0.06 mg/kg/injection, schedule: Q01DX001 (ip), vehicle: water); 100 % of control (dose: 0.1 mg/kg/injection, schedule: Q01DX015 (ip), vehicle: water); 114 % of control (dose: 0.12 mg/kg/injection, schedule: Q01DX009 (ip), vehicle: clinical formulation); 118 % of control (dose: 0.12 mg/kg/injection, schedule: Q#A X005 (ip), vehicle: saline); 100 % of control (dose: 0.13 mg/kg/injection, schedule: Q01DX001 (ip), vehicle: water). Also, the T/C reads like this: (dose: 0.13 mg/kg/injection, schedule: Q01DX009 (ip), vehicle: saline) 122 % of control; (dose: 0.19 mg/kg/injection, schedule: Q01DX010 (ip), vehicle: saline) 110 % of control; (dose: 0.2 mg/kg/injection, schedule: Q01DX009 (ip), vehicle: water) 150 % of control; (dose: 0.25 mg/kg/injection, schedule: Q01DX001 (im), vehicle: water) 100 % of control; (dose: 0.25 mg/kg/injection, schedule: Q01DX001 (ip), vehicle: water) 104 % of control; (dose: 0.25 mg/kg/injection, schedule: Q01DX005 (ip), vehicle: saline) 100 % of control. The T/C reads like this: (dose: 0.25 mg/kg/injection, schedule: Q01DX009 (ip), vehicle: clinical formulation) 121 % of control; (dose: 0.25 mg/kg/injection, schedule: Q01DX010 (oral), vehicle: saline) 100 % of control; (dose: 0.25 mg/kg/injection, schedule: Q01DX015 (ip), vehicle: water) 115 % of control; (dose: 0.35 mg/kg/injection, schedule: Q01DX009 (ip), vehicle: water) 150 % of control; (dose: 0.5 mg/kg/injection, schedule: Q01DX001 (im), vehicle: water) 95 % of control; (dose: 0.5 mg/kg/injection, schedule: Q01DX001 (ip), vehicle: saline) 100 % of control. The T/C is 110 % of control (dose: 0.5 mg/kg/injection, schedule: Q01DX001 (ip), vehicle: water); 100 % of control (dose: 0.5 mg/kg/injection, schedule: Q01DX005 (ip), vehicle: saline); 150 % of control (dose: 0.5 mg/kg/injection, schedule: Q01DX009 (ip), vehicle: water); 100 % of control (dose: 0.5 mg/kg/injection, schedule: Q01DX010 (oral), vehicle: saline); 90 % of control (dose: 0.5 mg/kg/injection, schedule: Q02DX005 (ip), vehicle: water); 100 % of control (dose: 0.5 mg/kg/injection, schedule: Q04DX003 (ip), vehicle: saline). Moreover, the T/C reads like this: (dose: 0.54 mg/kg/injection, schedule: Q01DX005 (ip), vehicle: water) 175 % of control; (dose: 0.65 mg/kg/injection, schedule: Q01DX009 (ip), vehicle: water) 95 % of control; (dose: 0.65 mg/kg/injection, schedule: Q04DX003 (ip), vehicle: water) 115 % of control; (dose: 0.75 mg/kg/injection, schedule: Q01DX010 (ip), vehicle: water) 118 % of control; (dose: 1.0 mg/kg/injection, schedule: Q01DX001 (im), vehicle: water) 108 % of control; (dose: 1.0 mg/kg/injection, schedule: Q01DX001 (ip), vehicle: saline) 100 % of control and 109 % of control. Moreover, the T/C is, setting by setting: (dose: 1.0 mg/kg/injection, schedule: Q01DX009 (ip), vehicle: clinical formulation) 191 % of control; (dose: 1.0 mg/kg/injection, schedule: Q01DX009 (ip), vehicle: saline) 94 % of control and 95 % of control; (dose: 1.0 mg/kg/injection, schedule: Q01DX010 (oral), vehicle: saline) 100 % of control; (dose: 1.0 mg/kg/injection, schedule: Q04DX003 (ip), vehicle: saline) 91 % of control and 118 % of control; (dose: 1.08 mg/kg/injection, schedule: Q04DX003 (ip), vehicle: water) 113 % of control; (dose: 1.5 mg/kg/injection, schedule: Q01DX010 (ip), vehicle: saline) 180 % of control. Further, the T/C reads like this: (dose: 1.5 mg/kg/injection, schedule: Q01DX010 (oral), vehicle: water) 91 % of control; (dose: 1.8 mg/kg/injection, schedule: Q04DX003 (ip), vehicle: water) 103 % of control; (dose: 2.0 mg/kg/injection, schedule: Q01DX001 (ip), vehicle: saline) 118 % of control; (dose: 2.0 mg/kg/injection, schedule: Q01DX009 (ip), vehicle: saline) 31 % of control; (dose: 2.0 mg/kg/injection, schedule: Q01DX010 (oral), vehicle: saline) 100 % of control; (dose: 2.0 mg/kg/injection, schedule: Q01DX010 (oral), vehicle: water) 91 % of control. For the same molecule, the T/C is 91 % of control (dose: 2.5 mg/kg/injection, schedule: Q01DX010 (oral), vehicle: water); 100 % of control (dose: 50.0 mg/kg/injection, schedule: Q01DX010 (ip), vehicle: water); 100 % of control (dose: 7.5 micrograms/kg/injection, schedule: Q03HX008 (ip), vehicle: saline); 95 % of control (dose: 7.5 micrograms/kg/injection, schedule: Q04DX024 (ip), vehicle: saline); 109 % of control (dose: 63.0 micrograms/kg/injection, schedule: Q01DX010 (ip), vehicle: saline); 100 % of control (dose: 94.0 micrograms/kg/injection, schedule: Q01DX010 (ip), vehicle: saline). For the same molecule, the T/C is 118 % of control (dose: 125.0 micrograms/kg/injection, schedule: Q01DX010 (ip), vehicle: saline); 113 % of control (dose: 188.0 micrograms/kg/injection, schedule: Q01DX010 (ip), vehicle: saline); 113 % of control (dose: 375.0 micrograms/kg/injection, schedule: Q01DX010 (ip), vehicle: saline).

Regarding `CC1=C/C(=N/NC(N)=O)CC(C)C1` (centres undefined), the T/C (dose: 50.0 mg/kg/injection, schedule: Q04DX003 (ip), vehicle: Klucel (hydroxypropylcellulose) (HPC)) is 100 % of control; the T/C under setting [1] was 105 % of control; the T/C under setting [2] is 100 % of control.

Turning to `NC(=S)c1cn(C2OC(CO)C(O)C2O)c2ncnc(N)c12` (centres undefined), the T/C by setting is: (dose: 3.3 mg/kg/injection, schedule: Q01DX009 (ip), vehicle: saline with Tween-80) 166 % of control; (dose: 5.0 mg/kg/injection, schedule: Q01DX009 (ip), vehicle: saline with Tween-80) 100 % of control.

For the molecule `N#CC1(c2ccc(Cl)cc2)CCC1`, the T/C is, setting by setting: under setting [3], 112 % of control; under setting [4], 108 % of control.

With `CN(C)c1ccc(/C=C/c2ccc3ccccc3[n+]2[O-])cc1`, the T/C under setting [5] was 99 % of control, the T/C under setting [3] is 97 % of control and the T/C under setting [4] is 117 % of control.

For the molecule `Nc1nc(N)c2cc(Sc3cccc(C(F)(F)F)c3)ccc2n1`, under setting [5], the T/C was 113 % of control.

As for `c1ccc(-c2c[nH]c(-c3ccccc3)c2)cc1`, the T/C under setting [1] is 104 % of control; the T/C under setting [2] is 109 % of control; the T/C (dose: 400.0 mg/kg/injection, schedule: Q04DX003 (ip), vehicle: Klucel (hydroxypropylcellulose) (HPC)) was 109 % of control.

With `CCN(CC)P1(=S)OCC(C)O1` (centres undefined), the T/C was 92 % of control (dose: 100.0 mg/kg/injection, schedule: Q04DX003 (ip), vehicle: saline with Tween-80); 100 % of control (dose: 200.0 mg/kg/injection, schedule: Q04DX003 (ip), vehicle: saline with Tween-80); 111 % of control (dose: 400.0 mg/kg/injection, schedule: Q04DX003 (ip), vehicle: saline with Tween-80).

Consider `CN1CCC(OC(=O)c2ccc3c(c2)OCO3)CC1`, for which the T/C is 100 % of control (dose: 12.5 mg/kg/injection, schedule: Q04DX003 (ip), vehicle: saline with Tween-80); 117 % of control (dose: 25.0 mg/kg/injection, schedule: Q04DX003 (ip), vehicle: saline with Tween-80); 91 % of control (dose: 50.0 mg/kg/injection, schedule: Q04DX003 (ip), vehicle: saline with Tween-80).

As for `O=C1c2ccccc2C(=O)c2c(NCCNCCNCCO)ccc(NCCNCCNCCO)c21`, the T/C by setting is: (dose: 25.0 mg/kg/injection, schedule: Q01DX009 (ip), vehicle: water) 100 % of control; (dose: 50.0 mg/kg/injection, schedule: Q01DX009 (ip), vehicle: water) 113 % of control; (dose: 100.0 mg/kg/injection, schedule: Q01DX009 (ip), vehicle: water) 115 % of control.
